Results reported in patent US11008304B2, “Tetrazole containing apoptosis signal-regulating kinase 1 inhibitors and methods of use thereof” (ENANTA PHARMACEUTICALS, INC., priority 2018, dated 2021).

Molecular target: ASK1 kinase (Homo sapiens (Human), UniProt Q99683)
Assay: HTRF KinEASE assay of ASK1 kinase activity inhibition
Type: biochemical
Settings: 5 nM ASK1, 1 uM STK3 peptide substrate, 100 uM ATP, TR-FRET readout
Description: The ability (IC50) of compounds to inhibit ASK1 kinase activity was determined by HTRF® KinEASE™ Assay System. ASK1 was purchased from Thermofisher (Catalogue #PV4011), ATP was purchased from Sigma (Catalogue #A7699), HTRF® KinEASE™ Assay System was obtained from Cisbio (Bedford, Mass.). ½ Area plate was purchased from Perkin Elmer (Catalogue ##6005560). HTRF® KinEASE™-STK is a generic method for measuring serine/threonine kinase activities using a time-resolved fluorescence resonance energy transfer (TR-FRET) immunoassay. The IC50 value for each compound was determined in the presence of compound (various concentration from 0 to 10 μM) and a fixed amount of ATP and peptide substrates. The test compound, 1 uM STK3 peptide substrate, and 5 nM of ASK1 kinase are incubated with kinase reaction buffer containing 50 mM HEPES pH 7.5, 0.01% BRIJ-35, 10 mM MgCl2, and 1 mM EGTA for 30 minutes. 100 uM ATP is added to start kinase reaction and incubated for 3 hours. The STK3-antibody labeled with Eu^3+-Cryptate and 125 nM streptavidin-XL665 are mixed in a single addition with stop reagents provided by the Cisbio kit used to stop the kinase reaction. Fluorescence is detected using an Envision Multilabeled 2014 reader from PerkinElmer. The Fluorescence is measured at 615 nm (Cryptate) and 665 nm (XL665) and a ratio of 665 nm/615 nm is calculated for each well. The resulting TR-FRET is proportional to the phosphorylation level. Staurosporine was used as the positive control. IC50 was determined by XLfit 5.3. By using above method, the inhibition of ASK1 was tested for the compound of formula (I). IC50 ranges are as follows: A<1 nM; 1 nM<B<10 nM; 10 nM<C<100 nM; 100 nM<D<1 μM; E>1 μM.

Chain of ASK1 kinase (Q99683 whole entry): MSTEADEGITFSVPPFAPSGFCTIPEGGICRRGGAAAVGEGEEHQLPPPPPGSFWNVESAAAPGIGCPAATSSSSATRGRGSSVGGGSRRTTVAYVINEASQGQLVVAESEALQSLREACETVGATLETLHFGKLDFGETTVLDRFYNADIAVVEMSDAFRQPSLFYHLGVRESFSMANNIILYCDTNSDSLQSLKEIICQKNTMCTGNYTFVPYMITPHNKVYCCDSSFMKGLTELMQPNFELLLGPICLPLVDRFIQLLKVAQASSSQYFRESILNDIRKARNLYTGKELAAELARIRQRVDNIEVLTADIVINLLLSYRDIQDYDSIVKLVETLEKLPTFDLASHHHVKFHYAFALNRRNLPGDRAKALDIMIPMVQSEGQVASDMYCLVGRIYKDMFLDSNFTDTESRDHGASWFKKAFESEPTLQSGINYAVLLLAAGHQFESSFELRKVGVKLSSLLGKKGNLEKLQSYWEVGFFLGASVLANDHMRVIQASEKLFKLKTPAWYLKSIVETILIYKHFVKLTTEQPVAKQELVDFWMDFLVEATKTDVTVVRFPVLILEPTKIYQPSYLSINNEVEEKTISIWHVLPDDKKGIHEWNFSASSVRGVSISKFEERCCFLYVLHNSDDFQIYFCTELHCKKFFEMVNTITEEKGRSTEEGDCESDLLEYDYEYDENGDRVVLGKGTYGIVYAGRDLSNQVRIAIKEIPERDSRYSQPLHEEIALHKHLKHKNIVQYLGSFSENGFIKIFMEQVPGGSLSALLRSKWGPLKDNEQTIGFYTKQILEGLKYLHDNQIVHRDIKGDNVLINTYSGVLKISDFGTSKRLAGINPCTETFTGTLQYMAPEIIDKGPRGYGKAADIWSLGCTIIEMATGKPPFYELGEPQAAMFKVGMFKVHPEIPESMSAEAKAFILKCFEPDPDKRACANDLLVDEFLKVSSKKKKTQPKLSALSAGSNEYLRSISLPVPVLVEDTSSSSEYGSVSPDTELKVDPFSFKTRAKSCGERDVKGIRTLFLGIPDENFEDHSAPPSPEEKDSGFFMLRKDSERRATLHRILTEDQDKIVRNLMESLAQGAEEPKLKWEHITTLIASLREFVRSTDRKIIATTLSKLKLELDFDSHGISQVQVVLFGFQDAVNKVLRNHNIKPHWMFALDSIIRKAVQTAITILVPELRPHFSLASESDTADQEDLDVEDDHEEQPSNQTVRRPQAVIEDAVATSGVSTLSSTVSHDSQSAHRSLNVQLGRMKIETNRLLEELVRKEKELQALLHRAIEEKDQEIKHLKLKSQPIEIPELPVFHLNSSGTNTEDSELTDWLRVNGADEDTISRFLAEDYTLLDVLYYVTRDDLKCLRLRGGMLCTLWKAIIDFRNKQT

Row | SMILES | IC50 [nM]
1 | Cc1cnc(C(=O)Nc2cccc(-c3nnnn3[C@H](C)CO)n2)cc1-c1cnn(C(C)C)c1 [Example 28] | 1 to 10
2 | COc1cc(C)c(-c2cnn(C3CC3)c2)cc1C(=O)Nc1cccc(-n2nnnc2C(C)C)n1 [Example 76] | < 1
3 | C[C@H](CO)n1nnnc1-c1cccc(NC(=O)c2cc(-c3cnn(C4CC4)c3)c(C(F)F)cn2)n1 [Example 29] | 1 to 10
4 | Cc1cc(F)c(C(=O)Nc2cccc(-c3nnnn3[C@H](C)CO)n2)cc1-c1cnn(C(F)(F)F)c1 [Example 57] | 1 to 10
5 | Cc1cc(F)c(C(=O)Nc2cccc(-c3nnnn3C(C)C)n2)cc1-c1cc(C2CC2)on1 [Example 71] | 10 to 100
6 | Cc1cc(F)c(C(=O)Nc2cccc(-n3nnnc3C(C)C)n2)cc1-c1cnn(C(C)(C)C)c1 [Example 53] | 1 to 10
7 | Cc1cc(F)c(C(=O)Nc2cccc(-c3nnnn3[C@@H]3CCC[C@@H]3O)n2)cc1-c1cnn(C2CC2)c1 [Example 84] | 1 to 10
8 | Cc1cc(F)c(C(=O)Nc2cccc(-c3nnnn3C(C)C)n2)cc1-c1ccncc1 [Example 66] | 10 to 100
9 | CC(C)n1nnnc1-c1nc(NC(=O)c2cc(-c3cnn(C4CC4)c3)c(N3CCCC3)cn2)cs1 [Example 9] | 1 to 10
10 | Cc1cc(F)c(C(=O)Nc2cccc(-n3nnnc3C(C)C)n2)cc1-c1cnn(C(C)C)c1 [Example 51] | 1 to 10
11 | CC(C)n1nnnc1-c1nc(NC(=O)c2cc(-c3cnn(C4CC4)c3)c(N3CCN(C)CC3)cn2)cs1 [Example 12] | 1 to 10
12 | Cc1ncc(-c2cc(C(=O)Nc3cccc(-c4nnnn4C(C)C)n3)ncc2C)s1 [Example 39] | 1 to 10
13 | CC(C)n1nnnc1-c1cccc(NC(=O)c2cc(-c3cnn(C4CC4)c3)c(C(F)F)cn2)n1 [Example 18] | 1 to 10
14 | C[C@H](CO)n1nnnc1-c1cccc(NC(=O)c2cc(-c3cnn(C4CC4)c3)c(C(F)(F)F)cn2)n1 [Example 16] | 1 to 10
15 | Cc1cnc(C(=O)Nc2cccc(-c3nnnn3[C@H](C)CO)n2)cc1-c1ccc(C2CC2)s1 [Example 45] | 1 to 10

The next lines start with the values.

Row | IC50 [nM] | SMILES
16 | > 1000 | Cc1cc(F)c(C(=O)Nc2cccc(-n3nnnc3C(C)C)n2)cc1-c1cn(C(C)C)cn1 [Example 62]
17 | 1 to 10 | CC(C)n1nnnc1-c1cccc(NC(=O)c2cc(-c3cnn(C4CC4)c3)c(N3CCOCC3)cn2)n1 [Example 6]
18 | 1 to 10 | COc1cc(C)c(-c2cnn(C)c2)cc1C(=O)Nc1cccc(-c2nnnn2C(C)C)n1 [Example 73]
19 | 1 to 10 | Cc1cc(F)c(C(=O)Nc2cccc(-c3nnnn3[C@H](C)CO)n2)cc1-c1cnn(C(C)C)c1 [Example 50]
20 | > 1000 | Cc1cnc(C(=O)Nc2cccc(-n3nnnc3C(C)C)n2)cc1-c1cn(C(C)C)cn1 [Example 24]
21 | 1 to 10 | Cc1cc(F)c(C(=O)Nc2cccc(-c3nnnn3C(C)C)n2)cc1-c1cnn(C(C)(C)C)c1 [Example 52]
22 | 10 to 100 | Cc1cnc(C(=O)Nc2cccc(-c3nnnn3C(C)C)n2)cc1-c1ccc(C2CC2)s1 [Example 44]
23 | 10 to 100 | Cc1cnc(C(=O)Nc2cccc(-n3nnnc3C(C)C)n2)cc1-c1cnn(C2CC2)c1 [Example 17]
24 | 1 to 10 | Cc1cnc(C(=O)Nc2cccc(-c3nnnn3C(C)C)n2)cc1-c1cnc(C2CC2)s1 [Example 42]
25 | 1 to 10 | Cc1cc(F)c(C(=O)Nc2cccc(-c3nnnn3C(C)C)n2)cc1-c1cnn(C2CC2)c1 [Example 46]
26 | 10 to 100 | COc1cc(C)c(-c2ccn(C(C)C)n2)cc1C(=O)Nc1cccc(-n2nnnc2C(C)C)n1 [Example 79]
27 | 100 to 1000 | Cc1cc(F)c(C(=O)Nc2cccc(-n3nnnc3C(C)C)n2)cc1-c1cnn(C(F)(F)F)c1 [Example 56]
28 | 1 to 10 | Cc1cc(F)c(C(=O)Nc2cccc(-c3nnnn3[C@H](C)CO)n2)cc1-c1ccc(C2CC2)s1 [Example 70]
29 | < 1 | COc1cc(C)c(-c2cnn(C3CC3)c2)cc1C(=O)Nc1cccc(-c2nnnn2[C@H](C)CO)n1 [Example 77, 5-(1-cyclopropyl-1H-pyrazol-4-yl)-N-(6-[1-[(2R)-1-hydroxypropan-2-yl]-1H-1,2,3,4-tetrazol-5-yl]pyridin-2-yl)-2-methoxy-4-methylbenzamide]
